Experimental data: ChEMBL document CHEMBL4800723, “Data for DCP probe BI-1942” (2021)
Active and inactive are the calls of the source. The calls are words filed in the database; no cut-off is given here.

How the values were obtained:
[1] = biological target: Dipeptidyl peptidase 4 (Homo sapiens) (UniProt P27487); test: DIPEPTIDYLPEPTIDASE Eurofins SafetyScreen44 (BI); details: Compound concentration 10.0 uM
[2] = biological target: Chymase (Homo sapiens, UniProt P23946); test: Angiotensin II formation by CMA1 in human plasma; assay type: cell-free
[3] = biological target: Prostaglandin G/H synthase 1 (Homo sapiens) (UniProt P23219); test: COX-1 Eurofins SafetyScreen44 (BI); details: Compound concentration 10.0 uM
[4] = biological target: D(3) dopamine receptor (Homo sapiens) (UniProt P35462); details: Compound concentration 10.0 uM
[5] = biological target: D(2) dopamine receptor (Homo sapiens) (UniProt P14416); details: Compound concentration 10.0 uM
[6] = biological target: Prostaglandin G/H synthase 2 (Homo sapiens) (UniProt P35354); test: COX-2 Eurofins SafetyScreen44 (BI); details: Compound concentration 10.0 uM
[7] = biological target: Caspase-1 (Homo sapiens) (UniProt P29466); test: CASPASE-1(H) Eurofins SafetyScreen44 (BI); details: Compound concentration 10.0 uM
[8] = biological target: Endothelin-converting enzyme 1 (Homo sapiens) (UniProt P42892); test: ECE(H) Eurofins SafetyScreen44 (BI); details: Compound concentration 10.0 uM
[9] = biological target: 5-hydroxytryptamine receptor 5A (Homo sapiens) (UniProt P47898); details: Compound concentration 10.0 uM
[10] = biological target: Kappa-type opioid receptor (Homo sapiens, UniProt P41145); test: GPCRScan assay: inhibition of KOR; set-up: radioligand conc. used [nm] 0.6 – 1.2, parental cells stable HEK
[11] = biological target: Beta-1 adrenergic receptor (Homo sapiens) (UniProt P08588); details: Compound concentration 10.0 uM
[12] = biological target: Prothrombin (Homo sapiens) (UniProt P00734); test: THROMBIN Eurofins SafetyScreen44 (BI); details: Compound concentration 10.0 uM
[13] = biological target: 5-hydroxytryptamine receptor 1D (Homo sapiens, UniProt P28221); details: Compound concentration 10.0 uM
[14] = species on record: Rattus norvegicus; test: K+/VOLT/RA Eurofins SafetyScreen44 (BI); details: Compound concentration 10.0 uM
[15] = biological target: Caspase-10 (Homo sapiens) (UniProt Q92851); test: CASPASE-10(H) Eurofins SafetyScreen44 (BI); details: Compound concentration 10.0 uM
[16] = biological target: Histamine H4 receptor (Homo sapiens) (UniProt Q9H3N8); details: Compound concentration 10.0 uM
[17] = biological target: Delta-type opioid receptor (Homo sapiens) (UniProt P41143); details: Compound concentration 10.0 uM
[18] = biological target: 5-hydroxytryptamine receptor 6 (Homo sapiens) (UniProt P50406); details: Compound concentration 10.0 uM
[19] = biological target: Caspase-8 (Homo sapiens) (UniProt Q14790); test: CASPASE8_CE Eurofins SafetyScreen44 (BI); details: Compound concentration 10.0 uM
[20] = biological target: Dipeptidyl peptidase 1 (Homo sapiens) (UniProt P53634); test: CATHEPSIN_C_CE Eurofins SafetyScreen44 (BI); details: Compound concentration 10.0 uM
[21] = biological target: Sodium-dependent serotonin transporter (Homo sapiens) (UniProt P31645); test: SLC6A4/H Eurofins SafetyScreen44 (BI); details: filed as antagonist, Compound concentration 10.0 uM
[22] = biological target: Beta-secretase 1 (Homo sapiens) (UniProt P56817); test: BACE-1 Eurofins SafetyScreen44 (BI); details: Compound concentration 10.0 uM
[23] = biological target: cGMP-inhibited 3',5'-cyclic phosphodiesterase 3A (Homo sapiens) (UniProt Q14432); test: PDE3A Eurofins SafetyScreen44 (BI); details: Compound concentration 10.0 uM
[24] = biological target: Stromelysin-1 (Homo sapiens) (UniProt P08254); test: MMP-3 (H) Eurofins SafetyScreen44 (BI); details: Compound concentration 10.0 uM
[25] = biological target: Glutamate NMDA receptor (Rattus norvegicus) (UniProt P35439+Q00959+Q00960+Q00961+Q62645+Q8VHN2+Q9R1M7); test: NMDA/R Eurofins SafetyScreen44 (BI); assay type: protein-complex assay; details: Compound concentration 10.0 uM
[26] = biological target: 5-hydroxytryptamine receptor 2B (Homo sapiens) (UniProt P41595); details: Compound concentration 10.0 uM
[27] = biological target: Sigma intracellular receptor 2 (Homo sapiens) (UniProt Q5BJF2); details: Compound concentration 10.0 uM
[28] = biological target: Macrophage metalloelastase (Homo sapiens) (UniProt P39900); test: MMP-12 Eurofins SafetyScreen44 (BI); details: Compound concentration 10.0 uM
[29] = biological target: L-type calcium channel (dihydropyridine site), Cav1.2 alpha-1C (Rattus norvegicus, UniProt P22002); test: CA+/DHPSI/R Eurofins SafetyScreen44 (BI); set-up: mode of action inhibitor; details: rat brain, probe [3H](+)PN200-110, compound concentration 10 uM, read-out: % Ctrl
[30] = biological target: Disintegrin and metalloproteinase domain-containing protein 17 (Homo sapiens) (UniProt P78536); test: TACE Eurofins SafetyScreen44 (BI); details: Compound concentration 10.0 uM
[31] = biological target: Serotonin 3 (5-HT3) receptor (Homo sapiens) (UniProt P46098+A5X5Y0+O95264+Q70Z44+Q8WXA8); test: 5HT3/H Eurofins SafetyScreen44 (BI); assay type: protein-complex assay; details: Compound concentration 10.0 uM
[32] = biological target: D(4) dopamine receptor (Homo sapiens) (UniProt P21917); details: Compound concentration 10.0 uM
[33] = biological target: Neuronal acetylcholine receptor; alpha4/beta2 (Homo sapiens) (UniProt P17787+P43681); test: N_NEURO_A4B2 Eurofins SafetyScreen44 (BI); assay type: protein-complex assay; details: filed as agonist, Compound concentration 10.0 uM
[34] = biological target: 5-hydroxytryptamine receptor 1A (Homo sapiens) (UniProt P08908); details: Compound concentration 10.0 uM
[35] = biological target: GABA-A receptor; anion channel (Rattus norvegicus) (UniProt O09028+P15431+P18506+P18508+P19969+P20236+P23574+P23576+P28471+P28473+P30191+P62813+P63079+P63138+Q91ZM7+Q9ES14); details: Compound concentration 10.0 uM
[36] = biological target: Muscarinic acetylcholine receptor M1 (Homo sapiens) (UniProt P11229); details: Compound concentration 10.0 uM
[37] = biological target: Beta-2 adrenergic receptor (Homo sapiens) (UniProt P07550); details: Compound concentration 10.0 uM
[38] = biological target: Procathepsin L (Homo sapiens) (UniProt P07711); test: CATHEPSIN-L Eurofins SafetyScreen44 (BI); details: Compound concentration 10.0 uM
[39] = biological target: Muscarinic acetylcholine receptor M2 (Homo sapiens) (UniProt P08172); test: M2/H Eurofins SafetyScreen44 (BI); details: filed as antagonist, Compound concentration 10.0 uM
[40] = biological target: Sodium-dependent dopamine transporter (Homo sapiens) (UniProt Q01959); test: DATRANS/HUM Eurofins SafetyScreen44 (BI); details: Compound concentration 10.0 uM
[41] = biological target: Histamine H1 receptor (Homo sapiens) (UniProt P35367); details: Compound concentration 10.0 uM
[42] = biological target: Androgen receptor (Homo sapiens) (UniProt P10275); test: ANDROGEN/H Eurofins SafetyScreen44 (BI); details: Compound concentration 10.0 uM
[43] = biological target: Alpha-1A adrenergic receptor (Homo sapiens) (UniProt P35348); test: ALPHA1AH_ANTAG Eurofins SafetyScreen44 (BI); details: filed as antagonist, Compound concentration 10.0 uM
Sequence of Alpha-1A adrenergic receptor (Homo sapiens) (P35348 whole entry): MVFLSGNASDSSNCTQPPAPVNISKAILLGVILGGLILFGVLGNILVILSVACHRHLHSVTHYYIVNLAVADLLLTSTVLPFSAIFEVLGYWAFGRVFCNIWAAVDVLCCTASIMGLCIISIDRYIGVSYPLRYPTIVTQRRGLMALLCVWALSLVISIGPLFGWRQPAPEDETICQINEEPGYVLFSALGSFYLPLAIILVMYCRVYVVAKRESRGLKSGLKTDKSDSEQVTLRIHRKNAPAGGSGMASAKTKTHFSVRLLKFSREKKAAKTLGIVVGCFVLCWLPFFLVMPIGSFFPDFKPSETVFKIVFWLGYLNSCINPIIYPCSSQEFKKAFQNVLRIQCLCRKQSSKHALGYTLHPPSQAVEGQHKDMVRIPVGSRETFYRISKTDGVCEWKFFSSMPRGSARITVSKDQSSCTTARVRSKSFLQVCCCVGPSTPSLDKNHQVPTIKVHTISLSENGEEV

Sequence of Kappa-type opioid receptor (P41145 whole entry): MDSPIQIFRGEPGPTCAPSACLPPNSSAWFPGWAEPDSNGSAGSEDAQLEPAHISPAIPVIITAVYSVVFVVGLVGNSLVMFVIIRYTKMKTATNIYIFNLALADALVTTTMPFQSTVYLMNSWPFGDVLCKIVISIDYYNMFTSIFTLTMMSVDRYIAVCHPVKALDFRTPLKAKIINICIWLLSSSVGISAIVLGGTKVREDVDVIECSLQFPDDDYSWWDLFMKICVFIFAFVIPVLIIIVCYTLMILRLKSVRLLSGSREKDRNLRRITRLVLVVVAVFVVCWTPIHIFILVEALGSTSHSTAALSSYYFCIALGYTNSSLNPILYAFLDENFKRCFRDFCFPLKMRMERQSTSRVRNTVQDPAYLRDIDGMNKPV
Sequence of Caspase-8 (Homo sapiens) (Q14790 217-374 limits assumed): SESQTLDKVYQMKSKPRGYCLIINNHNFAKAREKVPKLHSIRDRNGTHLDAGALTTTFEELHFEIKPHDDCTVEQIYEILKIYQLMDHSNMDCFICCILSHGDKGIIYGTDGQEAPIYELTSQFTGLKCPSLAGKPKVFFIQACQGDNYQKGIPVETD
Sequence of Caspase-8 (Homo sapiens) (Q14790 385-479 limits assumed): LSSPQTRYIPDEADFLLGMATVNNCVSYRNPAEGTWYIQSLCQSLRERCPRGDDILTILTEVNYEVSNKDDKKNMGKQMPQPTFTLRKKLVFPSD
Sequence of Disintegrin and metalloproteinase domain-containing protein 17 (Homo sapiens) (P78536 whole entry, the tested form may be a part): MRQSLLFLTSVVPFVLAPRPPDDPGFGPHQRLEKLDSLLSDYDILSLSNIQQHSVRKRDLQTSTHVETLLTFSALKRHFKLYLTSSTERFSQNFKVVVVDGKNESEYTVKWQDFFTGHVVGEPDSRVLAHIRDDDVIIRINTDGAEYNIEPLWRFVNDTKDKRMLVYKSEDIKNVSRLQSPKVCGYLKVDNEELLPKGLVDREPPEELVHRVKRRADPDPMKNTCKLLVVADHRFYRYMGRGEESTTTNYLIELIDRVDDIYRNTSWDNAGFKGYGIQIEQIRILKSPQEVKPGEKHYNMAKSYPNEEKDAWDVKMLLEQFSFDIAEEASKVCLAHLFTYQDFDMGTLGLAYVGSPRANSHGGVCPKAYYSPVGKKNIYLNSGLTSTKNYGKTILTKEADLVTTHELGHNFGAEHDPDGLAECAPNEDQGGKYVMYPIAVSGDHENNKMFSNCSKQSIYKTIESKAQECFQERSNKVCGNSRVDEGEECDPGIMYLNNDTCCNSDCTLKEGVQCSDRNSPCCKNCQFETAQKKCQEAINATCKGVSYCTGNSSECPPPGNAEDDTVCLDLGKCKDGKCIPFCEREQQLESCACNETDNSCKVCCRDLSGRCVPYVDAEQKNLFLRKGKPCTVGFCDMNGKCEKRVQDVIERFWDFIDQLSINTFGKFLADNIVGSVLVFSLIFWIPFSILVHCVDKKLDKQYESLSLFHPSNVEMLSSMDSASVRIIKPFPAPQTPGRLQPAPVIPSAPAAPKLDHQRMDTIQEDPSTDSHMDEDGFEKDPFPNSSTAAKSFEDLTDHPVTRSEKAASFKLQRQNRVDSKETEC
Sequence of Histamine H1 receptor (Homo sapiens) (P35367 whole entry): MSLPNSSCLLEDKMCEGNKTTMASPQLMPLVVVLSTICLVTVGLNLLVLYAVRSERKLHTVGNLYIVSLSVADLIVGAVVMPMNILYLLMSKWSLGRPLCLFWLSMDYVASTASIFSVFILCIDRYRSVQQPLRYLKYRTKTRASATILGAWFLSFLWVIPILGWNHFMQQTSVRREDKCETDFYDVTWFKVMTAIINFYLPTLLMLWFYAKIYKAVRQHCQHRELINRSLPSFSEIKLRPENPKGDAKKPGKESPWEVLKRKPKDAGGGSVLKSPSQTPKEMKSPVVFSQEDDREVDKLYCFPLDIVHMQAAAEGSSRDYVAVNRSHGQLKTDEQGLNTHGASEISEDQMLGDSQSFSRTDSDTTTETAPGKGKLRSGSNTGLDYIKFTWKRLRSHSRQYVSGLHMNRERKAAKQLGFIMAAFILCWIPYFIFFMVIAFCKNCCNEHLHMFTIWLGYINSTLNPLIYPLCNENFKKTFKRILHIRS
Sequence of Procathepsin L (Homo sapiens) (P07711 114-333 limits assumed): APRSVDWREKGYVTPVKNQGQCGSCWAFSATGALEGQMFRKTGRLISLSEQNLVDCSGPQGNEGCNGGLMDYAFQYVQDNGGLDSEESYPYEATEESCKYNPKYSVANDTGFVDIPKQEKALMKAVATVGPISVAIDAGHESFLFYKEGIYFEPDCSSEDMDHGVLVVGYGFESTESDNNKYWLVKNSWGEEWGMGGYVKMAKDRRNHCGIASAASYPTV
Sequence of Delta-type opioid receptor (Homo sapiens) (P41143 whole entry): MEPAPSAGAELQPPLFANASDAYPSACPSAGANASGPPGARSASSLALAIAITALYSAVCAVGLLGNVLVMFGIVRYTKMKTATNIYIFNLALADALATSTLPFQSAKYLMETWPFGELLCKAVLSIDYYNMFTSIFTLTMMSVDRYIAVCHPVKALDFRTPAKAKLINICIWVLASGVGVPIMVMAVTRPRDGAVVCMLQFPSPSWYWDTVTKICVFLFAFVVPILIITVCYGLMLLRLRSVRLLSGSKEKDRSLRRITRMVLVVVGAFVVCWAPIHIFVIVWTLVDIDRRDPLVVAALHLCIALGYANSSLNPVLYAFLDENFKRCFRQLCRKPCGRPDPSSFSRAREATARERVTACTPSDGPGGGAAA
Sequence of 5-hydroxytryptamine receptor 1D (P28221 whole entry): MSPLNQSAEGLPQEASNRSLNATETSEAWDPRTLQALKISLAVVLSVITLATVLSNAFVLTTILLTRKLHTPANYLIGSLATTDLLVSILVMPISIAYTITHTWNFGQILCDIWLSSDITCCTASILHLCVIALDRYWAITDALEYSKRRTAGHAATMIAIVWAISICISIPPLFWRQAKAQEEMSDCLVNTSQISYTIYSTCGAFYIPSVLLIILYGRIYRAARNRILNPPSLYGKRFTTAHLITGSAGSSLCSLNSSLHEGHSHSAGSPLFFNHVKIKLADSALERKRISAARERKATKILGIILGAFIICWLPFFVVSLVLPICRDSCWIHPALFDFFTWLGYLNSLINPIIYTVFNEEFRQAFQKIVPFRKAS
Sequence of Muscarinic acetylcholine receptor M1 (Homo sapiens) (P11229 whole entry): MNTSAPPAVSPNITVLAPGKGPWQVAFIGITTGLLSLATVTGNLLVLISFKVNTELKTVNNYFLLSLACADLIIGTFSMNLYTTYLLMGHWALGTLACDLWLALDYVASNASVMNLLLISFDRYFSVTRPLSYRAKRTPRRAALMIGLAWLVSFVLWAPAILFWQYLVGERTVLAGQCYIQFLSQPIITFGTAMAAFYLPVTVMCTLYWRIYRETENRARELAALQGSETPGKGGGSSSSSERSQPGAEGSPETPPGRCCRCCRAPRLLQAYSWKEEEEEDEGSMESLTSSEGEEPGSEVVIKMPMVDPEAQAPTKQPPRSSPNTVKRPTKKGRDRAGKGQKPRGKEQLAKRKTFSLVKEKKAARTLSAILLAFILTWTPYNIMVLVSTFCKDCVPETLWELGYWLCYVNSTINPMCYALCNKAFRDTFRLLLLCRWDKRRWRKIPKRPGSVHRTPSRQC
Sequence of Beta-1 adrenergic receptor (Homo sapiens) (P08588 whole entry, looked up): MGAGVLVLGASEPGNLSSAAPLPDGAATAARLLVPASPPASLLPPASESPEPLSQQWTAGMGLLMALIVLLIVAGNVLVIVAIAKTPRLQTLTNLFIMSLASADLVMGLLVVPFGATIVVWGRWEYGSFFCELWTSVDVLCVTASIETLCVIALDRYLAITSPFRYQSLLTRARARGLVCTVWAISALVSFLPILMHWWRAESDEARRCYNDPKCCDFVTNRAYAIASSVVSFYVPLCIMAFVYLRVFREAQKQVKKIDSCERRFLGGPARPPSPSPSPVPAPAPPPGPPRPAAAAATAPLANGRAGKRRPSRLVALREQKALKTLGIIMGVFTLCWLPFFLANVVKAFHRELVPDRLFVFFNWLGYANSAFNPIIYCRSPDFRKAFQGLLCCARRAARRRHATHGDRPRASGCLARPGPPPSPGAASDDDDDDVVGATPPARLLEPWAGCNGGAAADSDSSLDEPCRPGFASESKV
Sequence of Macrophage metalloelastase (Homo sapiens) (P39900 106-470 limits assumed): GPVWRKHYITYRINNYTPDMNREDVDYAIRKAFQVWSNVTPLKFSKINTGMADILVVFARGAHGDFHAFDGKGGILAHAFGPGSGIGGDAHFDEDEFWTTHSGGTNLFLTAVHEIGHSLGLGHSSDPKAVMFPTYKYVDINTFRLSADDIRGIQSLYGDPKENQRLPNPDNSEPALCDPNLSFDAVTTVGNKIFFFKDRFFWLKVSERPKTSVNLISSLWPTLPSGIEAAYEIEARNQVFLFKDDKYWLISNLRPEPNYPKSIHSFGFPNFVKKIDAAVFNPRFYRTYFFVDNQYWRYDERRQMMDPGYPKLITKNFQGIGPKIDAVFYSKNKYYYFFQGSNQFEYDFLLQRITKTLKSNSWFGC
Sequence of Sigma intracellular receptor 2 (Homo sapiens) (Q5BJF2 whole entry): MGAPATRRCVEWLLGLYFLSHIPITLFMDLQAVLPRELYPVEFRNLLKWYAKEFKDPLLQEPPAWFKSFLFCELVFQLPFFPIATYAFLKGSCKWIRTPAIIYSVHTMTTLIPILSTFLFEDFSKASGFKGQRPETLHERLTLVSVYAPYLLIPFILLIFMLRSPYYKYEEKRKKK

Question: Which residual activity [1] does the source give for `CC[C@H](CC(=O)O)n1c(=O)c2ncccc2n(Cc2cn(C)c3cc(C)cc(C)c23)c1=O` [BI-1942] here?
Answer: 107%

Question: What about the IC50 [2] of the same molecule?
Answer: 198 nM (active)

Question: And the residual activity [3]?
Answer: 134%

Question: What about the inhibition [4] of the same molecule?
Answer: 11.1%

Question: What about the inhibition [5] of the same molecule?
Answer: 0.91%

Question: And the residual activity [6]?
Answer: 101%

Question: What about the residual activity [7] of the same molecule?
Answer: 103%

Question: And the residual activity [8]?
Answer: 82%

Question: What about the inhibition [9] of the same molecule?
Answer: 5.71%

Question: And the Ki ([10]; read-out: Ki)?
Answer: 4.95 µM

Question: And the Ki ([10]; read-out: pKi (converted))?
Answer: 4.79 µM

Question: What about the inhibition [11] of the same molecule?
Answer: 10.4%

Question: What about the residual activity [12] of the same molecule?
Answer: 102%

Question: What about the inhibition [13] of the same molecule?
Answer: 52.9%

Question: And the residual activity [14]?
Answer: 104%

Question: And the residual activity [15]?
Answer: 111%

Question: And the inhibition [16]?
Answer: -5.56%

Question: And the inhibition [17]?
Answer: 9.83%

Question: What about the inhibition [18] of the same molecule?
Answer: 12.2%

Question: And the residual activity [19]?
Answer: 88%

Question: And the residual activity [20]?
Answer: 92%

Question: What about the residual activity [21] of the same molecule?
Answer: 86%

Question: And the residual activity [22]?
Answer: 106%

Question: What about the residual activity [23] of the same molecule?
Answer: 94%

Question: And the residual activity [24]?
Answer: 90%

Question: What about the residual activity [25] of the same molecule?
Answer: 113%

Question: What about the inhibition [26] of the same molecule?
Answer: 5.53%

Question: What about the inhibition [27] of the same molecule?
Answer: -9.5%

Question: What about the residual activity [28] of the same molecule?
Answer: 104%

Question: What about the activity at 10 µM [29] of the same molecule?
Answer: 108% (not active)

Question: What about the residual activity [30] of the same molecule?
Answer: 88%

Question: And the residual activity [31]?
Answer: 97%

Question: And the inhibition [32]?
Answer: -1.4%

Question: And the residual activity [33]?
Answer: 103%

Question: What about the inhibition [34] of the same molecule?
Answer: 8.83%

Question: What about the inhibition [35] of the same molecule?
Answer: 6.86%

Question: What about the inhibition [36] of the same molecule?
Answer: 8.69%

Question: And the inhibition [37]?
Answer: 10.5%

Question: And the residual activity [38]?
Answer: 99%

Question: What about the residual activity [39] of the same molecule?
Answer: 104%

Question: What about the residual activity [40] of the same molecule?
Answer: 101%

Question: And the inhibition [41]?
Answer: 14.1%

Question: What about the residual activity [42] of the same molecule?
Answer: 115%

Question: And the residual activity [43]?
Answer: 103%
